Measured values taken from patent publication US4191770A, “N1 -acyl-N2 -phenyldiaminopropanols and pharmaceutical compositions thereof” (Kali-Chemie Pharma GmbH, priority 1977, dated 1980).
Structures can show the parent of a compound that is named as a salt.

Legend:
in vivo = conditions: mouse, po, single dose p.o., unfed NMRI mice, 7 days, read-out: Toxicity LD50 p.o.
Experimental: The acute 7-day-toxicity is determined after a single application per os in white NMRI-mice which had not been fed. The calculation of the LD50 is carried out by probitanalysis by means of electronic data processing (see L. Cavalli-Sforza, Gustav Fischer-Verlag, Stuttgart (1964), Grundbegriffe der Biometrie, p. 153).

[1] = test system: indomethacine induced ulcers; assay: Effectiveness against indomethacine-induced ulcers in the rat; format: in vivo, rats; conditions: for inhibition in vivo at 150 mg/kg: dosage 150 mg/kg p.o.; for inhibition in vivo at 75 mg/kg: dosage 75 mg/kg p.o.; for inhibition in vivo at 68 mg/kg: dosage 68 mg/kg p.o.
Experimental: 2. Effectiveness against indomethacineinduced ulcers in the rate (Modified test procedure according to
To at least 6 male rats, having a body-weight of from 170 to 220 g, dosages of the test compounds are administered orally in an amount of 0.5 ml of a suspension medium per 100 g animal body-weight. The animals of the blank control group receive the corresponding amount by volume of the suspension medium only. One hour after application of the test compounds, a dosage of 20 mg per kg of indomethacine contained in an amount of 0.5 ml of a suspension per 100 g animal body-weight, are orally applied to each animal for producing ulcers. 24 hours after the application of indomethacine, the animals are sacrificed.
The mean value and the standard deviation of the numbers of ulcers is calculated, and subsequently the inhibiting activity of the test compounds and a standard compound are calculated as percent inhibition compared with the blank control group.

secretion in the stomach = assay: Effect on the secretion in the stomach of narcotized rats (determination of the pH-value); format: in vivo; conditions: for inhibition in vivo at 300 mg/kg: po, dosage 300 mg/kg p.o., narcotized rats, acetylcholine control = 100
Experimental: 3. Effect on the secretion in the stomach of narcotized rats (determinationof the pH-value)
The test is performed on narcotized (urethane narcosis) male rats, having a body-weight of 200-230 g. For this purpose N/4000-sodium hydroxide solution is perfused into the stomachs of rats at a rate of 1 ml per minute by means of a cardia- and pylorus-catheter. The pH value of the perfusate, which leaves the stomach by way of the pylorus catheter, is determined by means of a one-rod measuring system, and is continuously registered.
In order to perform a comparative control test, after a pre-run period of 20 minutes, 10 mg per kg of acetylcholine are applied intraperitoneously. The resulting comparative control value is defined as being 100.
For evaluation, the surface-integral is calculated numerically with the aid of the rule of Simpson. The degree of inhibition of the secretion is calculated from the difference between the surfaces before and after the application of the test compound.

[2] = Rattus norvegicus, po, 1 h before 20 mg/kg indomethacine, 24 h
[3] = at a low dosage, footnote of Table I

| Compound | LD50 at 168 h (in vivo) | inhibition in vivo at 150 mg/kg [1, 2] | inhibition in vivo at 300 mg/kg (secretion in the stomach; Rattus norvegicus) | inhibition in vivo at 75 mg/kg [1, 2] | further results |
| --- | --- | --- | --- | --- | --- |
| CCCCCCCCCCCCCCCC(=O)NCC(O)CN(C)c1ccc(Cl)cc1 (stereo not shown) [Compound 3, N1-hexadecanoyl-N2-methyl-N2-(4-chlorophenyl)-1,3-diaminopropan-2-ol] | > 6810 mg/kg | 40% | 0% | – | – |
| CN(CC(O)CNC(=O)C1CCCCC1)c1ccc(F)cc1 (stereo not shown) [Compound 6, N1-cyclohexylcarbonyl-N2-methyl-N2-(4-fluorophenyl)-1,3-diaminopropan-2-ol] | > 1470 mg/kg | 40% | 0% | – | – |
| COCCN(CC(O)CNC(=O)c1ccco1)c1ccc(Cl)cc1 (stereo not shown) [Compound 13, N1-furoyl-N2-methoxyethyl-N2-(4-chlorophenyl)-1,3-diaminopropan-2-ol] | > 1470 mg/kg | – | 0% | 35% | – |
| CN(CC(O)CNC(=O)C1CC1)c1ccccc1 (stereo not shown) [Compound 4, N1-cyclopropylcarbonyl-N2-methyl-N2-phenyl-1,3-diaminopropan-2-ol] | > 1470 mg/kg | 36% | 0% | – | – |
| CN1[C@@H]2CC[C@H]1C[C@@H](OC(=O)C(CO)c1ccccc1)C2 (stereo partly shown) [A, atropine sulfate, reference compound] | – | – | – | – | inhibition in vivo at 12 mg/kg ([1]; Rattus norvegicus, po, dosage 12 mg/kg p.o., 1 h before 20 mg/kg indomethacine, 24 h): 26%; effect on the ulcer (in words) [1, 3]: does not have a sufficiently; inhibition in vivo at 0.5 mg/kg (secretion in the stomach; Rattus norvegicus, ip, read-out: Inhibition of secretion in the stomach, % inhibition): 100%; inhibition of the secretion in the stomach (in words) (secretion in the stomach; [3]): strong inhibition |
| CN(CC(O)CNC(=O)c1ccco1)c1ccc(Cl)c(Cl)c1 (stereo not shown) [Compound 12, N1-furoyl-N2-methyl-N2-(3,4-dichlorophenyl)-1,3-diaminopropan-2-ol] | > 1470 mg/kg | – | 0% | 29% | – |
| CC(C)c1ccc(N(C)CC(O)CNC(=O)c2ccco2)cc1 (stereo not shown) [Compound 19, N1-furoyl-N2-methyl-N2-(4-isopropylphenyl)-1,3-diaminopropan-2-ol] | > 1470 mg/kg | – | 0% | 31% | – |
| CC(=O)NCC(O)CN(C)c1ccc(Cl)cc1 (stereo not shown) [Compound 1, N1-acetyl-N2-methyl-N2-(4-chlorophenyl)-1,3-diaminopropan-2-ol] | 2260 mg/kg | 33% | 0% | – | – |
| CCCCCC(=O)NCC(O)CN(C)c1ccc(F)cc1 (stereo not shown) [Compound 2, N1-hexanoyl-N2-methyl-N2-(4-fluorophenyl)-1,3-diaminopropan-2-ol] | 4320 mg/kg | 44% | 0% | – | – |
| CN(CC(O)CNC(=O)C1CCCCC1)c1ccccc1 (stereo not shown) [Compound 5, N1-cyclohexylcarbonyl-N2-methyl-N2-phenyl-1,3-diaminopropan-2-ol] | 3200 mg/kg | 47% | 0% | – | – |
| CN(CC(O)CNC(=O)C=Cc1ccccc1)c1ccc(Cl)cc1 (stereo not shown) [Compound 9, N1-cinnamoyl-N2-methyl-N2-(4-chlorophenyl)-1,3-diaminopropan-2-ol] | > 6810 mg/kg | – | 0% | – | inhibition in vivo at 68 mg/kg [1, 2]: 32% |
| COc1ccc(C(=O)NCC(O)CN(C)c2ccc(F)cc2)cc1OC (stereo not shown) [Compound 15, N1-(3,4-dimethoxybenzoyl)-N2-methyl-N2-(4-fluorophenyl)-1,3-diaminopropan-2-ol] | > 6810 mg/kg | – | 0% | 32% | – |
| CN(CC(O)CNC(=O)Cc1ccccc1)c1ccc(Cl)cc1 (stereo not shown) [Compound 8, N1-phenacetyl-N2-methyl-N2-(4-chlorophenyl)-1,3-diaminopropan-2-ol] | 3860 mg/kg | – | 0% | 26% | – |
| COc1ccc(C(=O)NCC(O)CN(C)c2ccc(Cl)c(Cl)c2)cc1OC (stereo not shown) [Compound 16, N1-(3,4-dimethoxybenzoyl)-N2-methyl-N2-(3,4-dichlorophenyl)-1,3-diaminopropan-2-ol] | > 6810 mg/kg | – | 0% | 38% | – |
| CN(CC(O)CNC(=O)c1ccccn1)c1ccc(Cl)cc1 (stereo not shown) [Compound 11, N1-picolinoyl-N2-methyl-N2-(4-chlorophenyl)-1,3-diaminopropan-2-ol] | 3300 mg/kg | – | 0% | – | inhibition in vivo at 68 mg/kg [1, 2]: 71% |
| CCCN(CC(O)CNC(=O)c1ccc(OC)c(OC)c1)c1ccc(Cl)cc1 (stereo not shown) [Compound 17, N1-(3,4-dimethoxybenzoyl)-N2-propyl-N2-(4-chlorophenyl)-1,3-diaminopropan-2-ol] | > 6810 mg/kg | – | 0% | 34% | – |
| COc1ccc(C(=O)NCC(O)CNc2ccccc2Cl)cc1OC (stereo not shown) [Compound 14, N1-(3,4-dimethoxybenzoyl)-N2-(2-chlorophenyl)-1,3-diaminopropan-2-ol] | > 6700 mg/kg | – | 0% | 33% | – |
| CN(CC(O)CNC(=O)c1ccccc1F)c1ccc(Cl)c(Cl)c1 (stereo not shown) [Compound 18, N1-(2-fluorobenzoyl)-N2-methyl-N2-(3,4-dichlorophenyl)-1,3-diaminopropan-2-ol] | > 1470 mg/kg | – | 0% | 33% | – |
| CCCN(CC(O)CNC(=O)C1CCCCC1)c1ccccc1 (stereo not shown) [Compound 7, N1-cyclohexylcarbonyl-N2-propyl-N2-phenyl-1,3-diaminopropan-2-ol] | > 1470 mg/kg | 34% | 0% | – | – |
| COc1ccc(C=CC(=O)NCC(O)CN(C)c2ccc(Cl)cc2)cc1OC (stereo not shown) [Compound 10, N1-(3,4-dimethoxycinnamoyl)-N2-methyl-N2-(4-chlorophenyl)-1,3-diaminopropan-2-ol] | > 6810 mg/kg | – | 0% | 32% | – |
